pIC50: −log10 of the molar value. Where “and” joins values, the source holds several entries; their conditions need not be identical. Identical values can stand only once.
Test system: 845751-090-R-J2-PDC tumor spheroid viability
Experiment: Anticancer human tumor 845751-090-R-J2-PDC patient-derived head and neck squamous carcinoma cell line growth inhibition [IpAb]
Conditions: spheroids with HUVEC and MSC; for viability, T/C: stronger effect = lower value; active = viability on the fitted dose curve at most 10% of control; inactive = the rest
Summary of the method: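 Multi-cell spheroids of 60% tumour cells, 25% HUVEC and 15% MSC in ultra-low-attachment U-bottom wells, treated with agents combined with ipatasertib or abemaciclib. Half-log ranges top out near clinical Cmax, or 10 microM when Cmax is unknown.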

[1] = curve of first compound, second compound 0.1 µM
[2] = curve of first compound, second compound 0.316 µM
[3] = curve of first compound, second compound 1 µM
[4] = curve of first compound, second compound 3.16 µM
[5] = curve of first compound, second compound 10 µM
[6] = second compound 0.1 µM, first compound 0.000316 µM
[7] = second compound 0.1 µM, first compound 0.001 µM
[8] = second compound 0.1 µM, first compound 0.00316 µM
[9] = second compound 0.1 µM, first compound 0.01 µM
[10] = second compound 0.1 µM, first compound 0.0316 µM
[11] = second compound 0.1 µM, first compound 0.1 µM
[12] = second compound 0.316 µM, first compound 0.000316 µM
[13] = second compound 0.316 µM, first compound 0.001 µM
[14] = second compound 0.316 µM, first compound 0.00316 µM
[15] = second compound 0.316 µM, first compound 0.01 µM
[16] = second compound 0.316 µM, first compound 0.0316 µM
[17] = second compound 0.316 µM, first compound 0.1 µM
[18] = second compound 1 µM, first compound 0.000316 µM
[19] = second compound 1 µM, first compound 0.001 µM
[20] = second compound 1 µM, first compound 0.00316 µM
[21] = second compound 1 µM, first compound 0.01 µM
[22] = second compound 1 µM, first compound 0.0316 µM
[23] = second compound 1 µM, first compound 0.1 µM
[24] = second compound 3.16 µM, first compound 0.0316 µM
[25] = second compound 3.16 µM, first compound 0.1 µM
[26] = second compound 10 µM, first compound 0.0316 µM
[27] = second compound 10 µM, first compound 0.1 µM
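Note: spheroids exposed to compounds for 7 days before readout.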
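Throughout, for viability, T/C: CTG3D luminescence normalised so that 100% = DMSO vehicle control.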

CC(C)n1nc(-c2ccc3oc(N)nc3c2)c2c(N)ncnc21 + CC(C)NCC(C(=O)N1CCN(c2ncnc3c2C(C)CC3O)CC1)c1ccc(Cl)cc1
active: viability, T/C [17] 9.02% | viability, T/C [22] 8.17% | viability, T/C [23] 9.76% | viability, T/C (second compound 3.16 µM, first compound 0.00316 µM) 8.4% | viability, T/C (second compound 3.16 µM, first compound 0.01 µM) 5.71% | viability, T/C [24] 4% | viability, T/C [25] 3.17% | viability, T/C (second compound 10 µM, first compound 0.000316 µM) 8.63% | viability, T/C (second compound 10 µM, first compound 0.001 µM) 7.55% | viability, T/C (second compound 10 µM, first compound 0.00316 µM) 4.17% | viability, T/C (second compound 10 µM, first compound 0.01 µM) 4.42% | viability, T/C [26] 2.07% | viability, T/C [27] 1.99%
inactive: viability, T/C [6] 55.2% | viability, T/C [7] 48.8% | viability, T/C [8] 45.1% | viability, T/C [9] 28.1% | viability, T/C [10] 21.2% | viability, T/C [11] 21.8% | viability, T/C [12] 36% | viability, T/C [13] 27.3% | viability, T/C [14] 23.3% | viability, T/C [15] 13.5% | viability, T/C [16] 11.2% | viability, T/C [18] 22.4% | viability, T/C [19] 22.9% | viability, T/C [20] 12.2% | viability, T/C [21] 8.4% | viability, T/C (second compound 3.16 µM, first compound 0.000316 µM) 24.3% | viability, T/C (second compound 3.16 µM, first compound 0.001 µM) 13.1%
8.89: pIC50 [1]
> 9.50: pIC50 [2] | pIC50 [3] | pIC50 [4] | pIC50 [5]

C=CCn1c(=O)c2cnc(Nc3ccc(N4CCN(C)CC4)cc3)nc2n1-c1cccc(C(C)(C)O)n1
inactive: viability, T/C (compound 0.0316 µM) 98.5% and 92.5% | viability, T/C (compound 0.1 µM) 75.5% and 64.4% | viability, T/C (compound 0.316 µM) 70.1% and 55.9% | viability, T/C (compound 1 µM) 68.8% and 58.6% | viability, T/C (compound 3.16 µM) 68.3% and 69.5% | viability, T/C (compound 10 µM) 49.5% and 53.6%
< 5.00: pIC50 (curve of compound)

CC(C)n1nc(-c2ccc3oc(N)nc3c2)c2c(N)ncnc21 + CCN1CCN(Cc2ccc(Nc3ncc(F)c(-c4cc(F)c5nc(C)n(C(C)C)c5c4)n3)nc2)CC1
inactive: viability, T/C (second compound 0.01 µM, first compound 0.000316 µM) 72.6% | viability, T/C (second compound 0.01 µM, first compound 0.001 µM) 47.8% | viability, T/C (second compound 0.01 µM, first compound 0.00316 µM) 39.2% | viability, T/C (second compound 0.01 µM, first compound 0.01 µM) 33% | viability, T/C (second compound 0.01 µM, first compound 0.0316 µM) 26.8% | viability, T/C (second compound 0.01 µM, first compound 0.1 µM) 21.1% | viability, T/C (second compound 0.0316 µM, first compound 0.000316 µM) 66.7% | viability, T/C (second compound 0.0316 µM, first compound 0.001 µM) 68.2% | viability, T/C (second compound 0.0316 µM, first compound 0.00316 µM) 54.3% | viability, T/C (second compound 0.0316 µM, first compound 0.01 µM) 28.1% | viability, T/C (second compound 0.0316 µM, first compound 0.0316 µM) 26.6% | viability, T/C (second compound 0.0316 µM, first compound 0.1 µM) 23.5% | viability, T/C [6] 62.6% | viability, T/C [7] 50.2% | viability, T/C [8] 52.2% | viability, T/C [9] 30.3% | viability, T/C [10] 25.7% | viability, T/C [11] 20.6% | viability, T/C [12] 47.5% | viability, T/C [13] 56.6% | viability, T/C [14] 49.6% | viability, T/C [15] 33.4% | viability, T/C [16] 32.7% | viability, T/C [17] 30.2% | viability, T/C [18] 56.7% | viability, T/C [19] 74% | viability, T/C [20] 57.7% | viability, T/C [21] 49% | viability, T/C [22] 45.5% | viability, T/C [23] 34.7%
8.56: pIC50 [2]
8.53: pIC50 [1]
8.42: pIC50 (curve of first compound, second compound 0.0316 µM)
8.96: pIC50 (curve of first compound, second compound 0.01 µM)
7.91: pIC50 [3]

CC1(C)CCC(CN2CCN(c3ccc(C(=O)NS(=O)(=O)c4ccc(NCC5CCOCC5)c([N+](=O)[O-])c4)c(Oc4cnc5[nH]ccc5c4)c3)CC2)=C(c2ccc(Cl)cc2)C1 + CC(C)NCC(C(=O)N1CCN(c2ncnc3c2C(C)CC3O)CC1)c1ccc(Cl)cc1
5.24: pIC50 [1]
inactive: viability, T/C [10] 65.2% | viability, T/C [11] 83% | viability, T/C (second compound 0.1 µM, first compound 0.316 µM) 81.9% | viability, T/C (second compound 0.1 µM, first compound 1 µM) 67% | viability, T/C (second compound 0.1 µM, first compound 3.16 µM) 111% | viability, T/C (second compound 0.1 µM, first compound 10 µM) 20.9% | viability, T/C [16] 30.5% | viability, T/C [17] 38.3% | viability, T/C (second compound 0.316 µM, first compound 0.316 µM) 53.5% | viability, T/C (second compound 0.316 µM, first compound 1 µM) 44% | viability, T/C (second compound 0.316 µM, first compound 3.16 µM) 47% | viability, T/C (second compound 0.316 µM, first compound 10 µM) 14.4% | viability, T/C [22] 28.6% | viability, T/C [23] 27.6% | viability, T/C (second compound 1 µM, first compound 0.316 µM) 54.8% | viability, T/C (second compound 1 µM, first compound 1 µM) 33.1% | viability, T/C (second compound 1 µM, first compound 3.16 µM) 33.6% | viability, T/C (second compound 1 µM, first compound 10 µM) 7.48% | viability, T/C [24] 26.7% | viability, T/C [25] 27.3% | viability, T/C (second compound 3.16 µM, first compound 0.316 µM) 31.5% | viability, T/C (second compound 3.16 µM, first compound 1 µM) 29.5% | viability, T/C (second compound 3.16 µM, first compound 3.16 µM) 42.4% | viability, T/C (second compound 3.16 µM, first compound 10 µM) 5.79% | viability, T/C [26] 13.1% | viability, T/C [27] 14.6% | viability, T/C (second compound 10 µM, first compound 0.316 µM) 38.2% | viability, T/C (second compound 10 µM, first compound 1 µM) 15.5% | viability, T/C (second compound 10 µM, first compound 3.16 µM) 22% | viability, T/C (second compound 10 µM, first compound 10 µM) 3.52%
> 7.50: pIC50 [2] | pIC50 [3] | pIC50 [4] | pIC50 [5]
